In ChEMBL document CHEMBL5316301, “Dual Nicotinamide Phosphoribosyltransferase (NAMPT) and Indoleamine 2,3-Dioxygenase 1 (IDO1) Inhibitors for the Treatment of Drug-Resistant Nonsmall-Cell Lung Cancer” (J Med Chem, 2023):
Active and inactive are the calls of the source. No cut-off for these calls is given here.

How the values were obtained:
[1] = biological target: T1, Indoleamine 2,3-dioxygenase 1 (Homo sapiens, UniProt P14902); experiment: Inhibition of human recombinant IDO1 assessed as reduction in N-formylkynurenine formation using L-tryptophan as substrate preincubated for 30 mins followed by substrate addition and measured after 10 mins by SpectraMax microplate reader analysis
T1 sequence (P14902 whole entry): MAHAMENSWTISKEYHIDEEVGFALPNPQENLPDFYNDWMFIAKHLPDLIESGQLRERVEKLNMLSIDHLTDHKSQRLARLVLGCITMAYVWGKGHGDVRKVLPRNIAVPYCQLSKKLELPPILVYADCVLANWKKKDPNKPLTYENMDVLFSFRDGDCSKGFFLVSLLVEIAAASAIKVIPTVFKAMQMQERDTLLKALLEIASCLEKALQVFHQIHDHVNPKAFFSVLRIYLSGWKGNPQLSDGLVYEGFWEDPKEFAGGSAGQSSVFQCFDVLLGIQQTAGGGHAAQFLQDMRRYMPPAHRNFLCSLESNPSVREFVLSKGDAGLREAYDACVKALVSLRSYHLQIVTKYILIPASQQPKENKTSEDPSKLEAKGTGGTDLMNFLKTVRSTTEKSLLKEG

[2] = biological target: T1, Indoleamine 2,3-dioxygenase 1; experiment: Inhibition of human recombinant IDO1 in human HeLa cells assessed as reduction in N-formylkynurenine formation using L-tryptophan as substrate preincubated for 24 hrs followed by substrate addition and measured after 30 mins; type: cell-based
[3] = biological target: Nicotinamide phosphoribosyltransferase (Homo sapiens, UniProt P43490); experiment: Inhibition of recombinant NAMPT (unknown origin) incubated for 60 mins by SpectraMax microplate reader analysis
Sequence of Nicotinamide phosphoribosyltransferase (P43490 whole entry): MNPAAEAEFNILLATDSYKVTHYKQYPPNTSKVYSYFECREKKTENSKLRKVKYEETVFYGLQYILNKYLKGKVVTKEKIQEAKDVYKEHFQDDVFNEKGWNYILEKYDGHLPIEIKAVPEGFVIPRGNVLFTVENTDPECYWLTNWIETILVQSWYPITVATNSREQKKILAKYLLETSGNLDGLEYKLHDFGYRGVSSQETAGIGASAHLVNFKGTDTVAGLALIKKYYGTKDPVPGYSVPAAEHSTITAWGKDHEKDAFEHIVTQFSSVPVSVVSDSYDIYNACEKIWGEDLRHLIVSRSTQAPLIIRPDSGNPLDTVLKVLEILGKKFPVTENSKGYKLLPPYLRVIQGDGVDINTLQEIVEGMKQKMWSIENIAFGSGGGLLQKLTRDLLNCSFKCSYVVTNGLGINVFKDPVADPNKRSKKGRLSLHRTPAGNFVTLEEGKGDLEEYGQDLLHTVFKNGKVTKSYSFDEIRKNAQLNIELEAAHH

[4] = tested on: A549; experiment: Antiproliferative activity against NAMPT inhibitor-resistant A549 cells assessed as reduction in cell viability in presence of NAC measured for 48 hrs by CCK-8 assay; type: functional, cell-based; conditions: Homo sapiens
[5] = AUC in Sprague-Dawley rat at 25 mg/kg, po; type: ADME, organism-based; set-up: dose 25 mg/kg, route po; conditions: in vivo
[6] = Toxicity in athymic nude mouse xenografted with NAMPT inhibitor-resistant A549 cells assessed as change in body weight at 50 to 200 mg/kg, po measured on day 21; type: organism-based; conditions: in vivo, 504 h, dose 50-200 mg/kg, time 21 day
[7] = organism: Danio rerio; experiment: Induction of ROS production in zebra fish embryos assessed as increase in green fluorescence at 5 uM measured for 24 hrs by DCFH-DA staining based inverted microscopic analysis; type: functional
[8] = tested on: A549; experiment: Downregulation of IDO1 expression in NAMPT inhibitor-resistant A549 cells measured for 24 hrs by Western blot analysis; type: functional, cell-based; conditions: Homo sapiens, dose 5-10 µM
[9] = Clearance in Sprague-Dawley rat at 5 mg/kg, iv; type: ADME, organism-based; conditions: in vivo
[10] = tested on: A549; experiment: cells; conditions: Homo sapiens, A549, 48 h
[11] = tested on: A549; experiment: Antitumor activity against NAMPT inhibitor-resistant A549 cells xenografted in athymic nude mouse assessed as tumor growth inhibition at 100 mg/kg, po bid measured on day 21 in presence of taxol by caliper method; type: functional, Homo sapiens; conditions: A549, 504 h, time 21 day, read-out: TGI
[12] = tested on: A549; experiment: Induction of ROS production in NAMPT inhibitor-resistant A549 cells assessed as ROS accumulation incubated for 24 hrs by DCFH-DA staining based flow cytometry analysis; type: functional, cell-based; conditions: Homo sapiens, dose 5-15 µM
[13] = tested on: A549; experiment: Effect on intracellular lipid level in NAMPT inhibitor-resistant A549 cells measured for 24 hrs by oil red staining based microscopic analysis; type: functional, cell-based; conditions: Homo sapiens
[14] = tested on: A549; experiment: Downregulation of IDO1 expression in NAMPT inhibitor-resistant A549 cells measured for 12 hrs in presence of cycloheximide by Western blot analysis; type: functional, cell-based; conditions: Homo sapiens
[15] = tested on: A549; experiment: Antitumor activity against NAMPT inhibitor-resistant A549 cells xenografted in athymic nude mouse at 100 mg/kg, po measured for 14 days in presence of FK866; type: functional, organism-based; conditions: Homo sapiens, time 14.0 day
[16] = tested on: A549; experiment: Antimigratory activity against NAMPT inhibitor-resistant A549 cells assessed as reduction in cell migration at 5 uM incubated for 24 hrs in presence of taxol by inverted microscopic analysis; type: functional, cell-based; conditions: Homo sapiens
[17] = tested on: A549; experiment: Antitumor activity against NAMPT inhibitor-resistant A549 cells xenografted in athymic nude mouse at 100 to 200 mg/kg, po measured for 14 days in presence of epacadostat; type: functional, organism-based; conditions: Homo sapiens, dose 100-200 mg/kg, time 14.0 day
[18] = tested on: A549; experiment: Antitumor activity against NAMPT inhibitor-resistant A549 cells xenografted in athymic nude mouse assessed as reduction in tumor size at 50 to 200 mg/kg, po bid measured on day 21 in presence of taxol by caliper method; type: functional, organism-based; conditions: Homo sapiens, dose 50-200 mg/kg, time 21.0 day
[19] = tested on: A549; experiment: Antitumor activity against NAMPT inhibitor-resistant A549 cells xenografted in athymic nude mouse at 100 to 200 mg/kg, po measured for 14 days in presence of FK866; type: functional, organism-based; conditions: Homo sapiens, dose 100-200 mg/kg, time 14.0 day
[20] = Oral bioavailability in Sprague-Dawley rat at 25 mg/kg; type: ADME, organism-based; conditions: in vivo
[21] = tested on: A549; experiment: Downregulation of NAMPT expression in NAMPT NAMPT inhibitor-resistant A549 cells measured for 24 hrs by Western blot analysis; type: functional, cell-based; conditions: Homo sapiens, dose 5-10 µM
[22] = Toxicity in athymic nude mouse xenografted with NAMPT inhibitor-resistant A549 cells assessed as mortality at 50 to 200 mg/kg, po measured on day 21; type: organism-based; conditions: in vivo, 504 h, dose 50-200 mg/kg, time 21 day
[23] = tested on: A549; experiment: Downregulation of IDO1 expression in NAMPT inhibitor-resistant A549 cells measured for 12 hrs in presence of MG-132 by Western blot analysis; type: functional, cell-based; conditions: Homo sapiens
[24] = tested on: A549; experiment: Induction of ROS production in NAMPT inhibitor-resistant A549 cells assessed as ROS accumulation at 5 to 15 uM incubated for 24 hrs in presence of NAC by DCFH-DA staining based flow cytometry analysis; type: functional, cell-based; conditions: Homo sapiens, dose 5-15 µM
[25] = tested on: A549; experiment: Antimigratory activity against NAMPT inhibitor-resistant A549 cells assessed as decrease in Snail expression incubated 24 hrs by Western blot analysis; type: functional, cell-based; conditions: Homo sapiens, dose 5-15 µM
[26] = tested on: A549; experiment: Downregulation of Smad3 expression in NAMPT inhibitor-resistant A549 cells at 5 to 15 uM measured for 24 hrs; type: functional, cell-based; conditions: Homo sapiens, dose 5-15 µM
[27] = tested on: A549; experiment: Antitumor activity against NAMPT inhibitor-resistant A549 cells xenografted in athymic nude mouse assessed as tumor growth inhibition at 50 mg/kg, po bid measured on day 21 by caliper method; type: functional, Homo sapiens; conditions: A549, 504 h, time 21 day, read-out: TGI
[28] = tested on: A549; experiment: Effect on intracellular lipid level in NAMPT inhibitor-resistant A549 cells measured for 24 hrs by nile red staining based microscopic analysis; type: functional, cell-based; conditions: Homo sapiens
[29] = tested on: A549; experiment: Antimigratory activity against NAMPT inhibitor-resistant A549 cells assessed as decrease in slug expression incubated 24 hrs by Western blot analysis; type: functional, cell-based; conditions: Homo sapiens, dose 5-15 µM
[30] = tested on: A549; experiment: Downregulation of NAD+ level in NAMPT inhibitor-resistant A549 cells at 10 uM measured for 24 hrs; type: functional, cell-based; conditions: Homo sapiens
[31] = tested on: A549; experiment: Antitumor activity against NAMPT inhibitor-resistant A549 cells xenografted in athymic nude mouse assessed as tumor growth inhibition at 100 mg/kg, po bid measured on day 21 by caliper method; type: functional, Homo sapiens; conditions: A549, 504 h, time 21 day, read-out: TGI
[32] = tested on: A549; experiment: Antitumor activity against NAMPT inhibitor-resistant A549 cells xenografted in athymic nude mouse at 100 mg/kg, po measured for 14 days in presence of epacadostat; type: functional, organism-based; conditions: Homo sapiens, time 14.0 day
[33] = tested on: A549; experiment: Antiproliferative activity against NAMPT inhibitor-resistant A549 cells assessed as reduction in cell viability in presence of NMN/L-tryptophan/QA measured for 48 hrs by CCK-8 assay; type: functional, cell-based; conditions: Homo sapiens
[34] = Apparent volume of distribution in Sprague-Dawley rat at 5 mg/kg, iv; type: ADME, organism-based; conditions: in vivo, read-out: Vz
[35] = tested on: A549; experiment: Inhibition of colony formation in NAMPT inhibitor-resistant A549 cells […] by crystal violet staining analysis; type: functional, cell-based; conditions: Homo sapiens, dose 5-15 µM
[36] = tested on: A549; experiment: Antiproliferative activity against NAMPT inhibitor-resistant A549 cells assessed as reduction in cell viability in presence of NMN and L-tryptophan measured for 48 hrs by CCK-8 assay; type: functional, cell-based; conditions: Homo sapiens
[37] = tested on: A549; experiment: Downregulation of NAD+ level in NAMPT inhibitor-resistant A549 cells at 10 uM measured for 24 hrs in presence of NMN/L-tryptophan/QA; type: functional, cell-based; conditions: Homo sapiens
[38] = tested on: A549; experiment: Antitumor activity against NAMPT inhibitor-resistant A549 cells xenografted in athymic nude mouse assessed as tumor growth inhibition at 200 mg/kg, po bid measured on day 21 by caliper method; type: functional, Homo sapiens; conditions: A549, 504 h, time 21 day, read-out: TGI
[39] = tested on: A549; experiment: Antimigratory activity against NAMPT inhibitor-resistant A549 cells assessed as inhibition of cell migration measured after 24 hrs by crystal violet staining based microscopic analysis; type: functional; conditions: Homo sapiens, dose 5-15 µM
[40] = organism: Danio rerio; experiment: Induction of ROS production in zebra fish embryos assessed as increase in green fluorescence at 10 uM measured for 24 hrs by DCFH-DA staining based inverted microscopic analysis; type: functional

For `O=C(CCNc1nonc1/C(=N/O)Nc1ccc(F)c(Br)c1)Nc1ccc(CNC(=O)c2ccc3nccn3c2)cc1`, the IC50 [1] was 151 nM and the IC50 [2] was 161 nM.
`O=C(NCCCCCNc1nonc1/C(=N/O)Nc1ccc(F)c(Br)c1)c1ccc2nccn2c1` gave an IC50 [1] of 858 nM and an IC50 [2] of 670 nM.
For `O=C(NCc1ccc(C(=O)N2CCC(CNc3nonc3/C(=N/O)Nc3ccc(F)c(Br)c3)CC2)cc1)c1ccc2nccn2c1`, the IC50 [1] was over 1000 nM.
Molecule `O=C(NCc1ccc(CNc2nonc2/C(=N/O)Nc2ccc(F)c(Br)c2)cc1)c1ccc2nccn2c1` has an IC50 [1] of over 1000 nM and an IC50 [3] of 4880 nM.
`O=C(NCCCNc1nonc1/C(=N/O)Nc1ccc(F)c(Br)c1)c1ccc2nccn2c1` gave an IC50 [1] of over 1000 nM and an IC50 [2] of over 1000 nM.
For `O=C(NCCCCNc1nonc1/C(=N/O)Nc1ccc(F)c(Br)c1)c1ccc(CNC(=O)c2ccc3nccn3c2)cc1`, the IC50 [1] was 835 nM and the IC50 [2] was 677 nM.
In the case of `O=C(NCCCCCCNc1nonc1/C(=N/O)Nc1ccc(F)c(Br)c1)c1ccc2nccn2c1`, the Activity [4] is reported as “inactive”, the AUC [5] is reported as 2530 ng·h/mL and the Activity [6] is reported as “Non-Toxic”. The Activity [7] was “Active”, the Activity [8] was “Dose-Dependent Effect” and the clearance [9] was 106 mL/min/kg. The IC50 [1] was 233 nM, the IC50 [10] was 5350 nM and the inhibition in vivo at 100 mg/kg [11] was 64.3%. The Activity [12] was “Dose-Dependent Effect”, the IC50 [3] was 57.7 nM and the Activity [13] was “Active”. For the same molecule, the Activity [14] was “Active”, the Activity [15] was “Active” and the Activity [16] was “Active”. For the same molecule, the Activity [17] was “Active”, the Activity [18] was “Active” and the Activity [19] was “Active”. The bioavailability [20] was 52.5%, the Activity [21] was “Dose-Dependent Effect” and the Activity [22] was “Non-Toxic”. The Activity [23] was “inactive”, the Activity [24] was “inactive” and the Activity [25] was “Dose-Dependent Effect”. The Activity [26] was “Active”, the inhibition in vivo at 50 mg/kg [27] was 24.6% and the Activity [28] was “Active”. The Activity [29] was “Dose-Dependent Effect”, the Activity [30] was “Active” and the inhibition in vivo at 100 mg/kg [31] was 40.2%. The Activity [32] was “Active”, the IC50 [2] was 160 nM and the Activity [33] was “inactive”. For the same molecule, the Vd [34] was 11.5 L/kg, the inhibition [35] was “Dose-Dependent Effect” and the Activity [36] was “inactive”. For the same molecule, the Activity [37] was “Active”, the inhibition in vivo at 200 mg/kg [38] was 53.8% and the Activity [39] was “Dose-Dependent Effect”. The Activity [40] was “Active”.
With `O=C(NCCNc1nonc1/C(=N/O)Nc1ccc(F)c(Br)c1)c1ccc2nccn2c1` the IC50 [1] was over 1000 nM and the IC50 [2] was over 1000 nM.
With `O=C(CCCNc1nonc1/C(=N/O)Nc1ccc(F)c(Br)c1)Nc1ccc(CNC(=O)c2ccc3nccn3c2)cc1` the IC50 [1] was 730 nM, the IC50 [3] was over 10000 nM and the IC50 [2] was 663 nM.
